Test results published in US20180169030A1, “DRUG CARRIER AND METHOD OF FABRICATING THE SAME” (priority 2016, published 2018).

Tested on: Hepatoma cells
Details: 75 ppm boron-10
Method: The drug carrier prepared in the above embodiments applied to the boron neutron capture therapy for cells was tested. The test method is described in detail below. Referring to FIG. 8, Tsing Hua Open-pool Reactor (THOR) 200 was used. An acrylic plate 204 was used as a carrier of 96-well plate 210. Hepatoma cells 206 were placed in the 96-well plate. Thermal neutrons 208 were used to irradiate the 96-well plate 210. An acrylic cube 202 was placed behind the carrier to slow down the thermal neutrons 208, so as to shorten the irradiation time.
Group I represents culture medium. Group J represents a boric acid solution containing 75 ppm of boron-10. Group K represents the drug carrier covering boric acid containing 75 ppm of boron-10. Group L represents the drug carrier without covering boric acid. The vertical axis is cell number percentage (%). The thermal neutron irradiation time was 27.67 minutes. After the thermal neutron irradiation, changes in cell numbers of each group were tested using the cell toxicity analysis kit (Wst-1 assay) after 24 hours.

Q: Which results are given for boric acid?
A: part of mortality rate caused by toxicity of boric acid / by drug carrier (not by irradiation): 40%; part of mortality rate caused by irradiation of thermal neutron (irradiation time 27.67 minutes): 15%; mortality rate after irradiation of thermal neutron (irradiation time 27.67 minutes, Wst-1 after 24 hours): 55%
